Test results published in patent US20230271953A1, “Novel compounds for treatment of diseases related to DUX4 expression” (Facio Intellectual Property B.V., priority 2019, published 2023).

Test system: DUX4
Experiment: DUX4 repression assay in primary FSHD cells (protocol of Example 2 of WO2019/115711)
Format: cell-based, human
Details: incubated 72 hours, Table 2.3 (additional results), binned
Protocol: The DUX4 repression of compounds of general formula (I) was assayed following a known protocol (the protocol of Example 2 of WO2019/115711). Several compounds were incubated with primary FSHD cells for 72 hours. Results are shown in Table 2.2, showing DUX4 Count % inhibition.

Fc1ccc(-c2nc3ccc(N4CC(N5CCCC5)C4)nc3n2-c2ccncc2)cc1 [Compound 106, 4-[2-(4-fluorophenyl)-5-[3-(pyrrolidin-1-yl)azetidin-1-yl]-3H-imidazo[4,5-b]pyridin-3-yl]pyridine]
DUX4 Count % inhibition: fall outside of the bins

C[C@@H]1CNCCN1c1ccc2nc(-c3cccc(C#N)c3)n(-c3ccncc3)c2n1 [Compound 188-R, 3-{5-[(2R)-2-methylpiperazin-1-yl]-3-(pyridin-4-yl)-3H-imidazo[4,5-b]pyridin-2-yl}benzonitrile]
DUX4 Count % inhibition: fall outside of the bins

OC1CN(c2ccc3nc(-c4ccc(F)cc4)n(-c4ccncc4)c3n2)C1 [Compound 98, 1-[2-(4-fluorophenyl)-3-(pyridin-4-yl)-3H-imidazo[4,5-b]pyridin-5-yl]azetidin-3-ol]
DUX4 Count % inhibition: fall outside of the bins
